The subject of assay [1] is conventional diabetic rats. Kind of assay: Gingival collagenolytic activity, alveolar bone loss, skin collagen and crevicular microflora in conventional streptozotocin-diabetic rats. The assay is classed as in vivo, rat. The note with it: 20 mg per day by gavage. The procedure:
Five month old (mean weight, 445g) male Sprague Dawley rats were made diabetic by I.V. injection of streptozotocin (70 mg/kg body weight), after a 12 hour fasting period, (as described by Golub, et al., Biochim. Biophys. Acta., 534, 73-81 (1978) and Golub, et al., Infect. Immun., 37, 1013-1020 (1982). Age matched uninjected rats served as controls. Some of the diabetic rats received the tetracycline, minocycline (20 mg. Minocin® per day; Lederle Laboratories, Pearl River, N.Y.), by gavage on a daily basis beginning 3 days after diabetes is induced. After a 25 day experimental period, blood samples were taken for glucose analysis, and subgingival plaque samples were taken for assessment of the microflora in the region (McNamara, et. al., Archs. Oral. Biol., 27, 217-223 (1982)). The animals were then sacrificed, gingival samples were taken for tissue culture and the jaw bones dissected.
Alveolar bone loss was assessed in the right and left mandibles of both the conventional and germfree rats (control and diabetic) using a modification of a previously described technique (Stralfors, et.al, Archs. Oral. Biol., 12, 1213-1216 (1967); Heijl, et. al., J. Periodontal Res., 15, 405-419 (1980)). The mandibles were defleshed (autoclaving followed by soaking in 2N NaOH for 2-3 h), dried, and the distance (expressed as units; 1 unit=0.05 mm) between the cementoenamel junction (CEJ) and the crest of the alveolar bone is measured in the long axis of the root surface at 10 specified sites on lingual surfaces of the 3 molar teeth (see Crawford, et.al., J. Periodontal Res., 13, 316-325 (1978)) using an eye-piece micrometer in a dissecting microscope (20× magnification).
The techniques used were those described by Schneir and Golub, (Streptozotocin: Fundamentals and Therapy (Ed. M. K. Agarwal, Elsevier/North-Holland Biomed Press, Chapter 12, pp 161-182, (1981)). […]

For assay [2], the system named is synovial tissue collagenolytic activity. Kind of assay: Collagenolytic activity in extracts of synovial tissue from patients with rheumatoid arthritis. Also noted: Synovial Tissue Collagenolytic Activity (% C^14-collagen degraded) After Minocycline Treatment / % Reduction by Treatment: concentration or dose not given beside the values. The assay is classed as in vivo, human. As to the method: In each of three patients, the diseased joint tissue on one side was surgically removed for therapeutic reasons. The three patients were then administered minocycline orally for 10 days and the diseased joint (synovial) tissue on the opposite side was surgically removed (for therapeutic reasons) after the course of minocycline treatment was completed. The tissues were coded, stored frozen, and analyzed double blind to eliminate any bias in the development of the data. The tissues were dried, the lipid removed, and the collagenolytic activity in the diseased joint tissues extracted and concentrated. Aliquots of the extract from each diseased joint were incubated in vitro with radiolabelled collagen fibrils for 72 hours at 37° C. to assess collagen destructive (collagenolytic) enzyme activity.

1 molecule from patent publication US4666897A, “Inhibition of mammalian collagenolytic enzymes by tetracyclines” (Research Foundation of State University, priority 1983, dated 1987) can be followed below.

SMILES strings stand for the structures.

Turning to `CN(C)c1ccc(O)c2c1C[C@H]1C[C@H]3[C@H](N(C)C)C(O)=C(C(N)=O)C(=O)[C@@]3(O)C(O)=C1C2=O` [minocycline, Minocycline], the “Gram-negative microflora in the gingival crevices” value in assay [1] is listed as “eliminated detectable signs”. In addition, in assay [1], the “alveolar bone loss in the interproximal region” value was “completely reversed”. Moreover, the “reduction of gingival collagenolytic activity (tissue culture)” value in assay [1] (25 day experimental period) is reported as 62%. Further, the “% Reduction by Treatment” value in assay [2] (Patient #1) is listed as 81.8%; in assay [2] (Patient #2) it was 68.8%; in assay [2] (Patient #3) it was “did not reduce collagenolytic activity much further”; in assay [2] (Patient #3, listed as Minocycline) it was 3.3%. Also, the “Synovial Tissue Collagenolytic Activity (% C^14-collagen degraded) After Minocycline Treatment” value in assay [2] (Patient #1, oral for 10 days, before treatment 43.0) is given as 7.8%; in assay [2] (Patient #2, oral for 10 days, before treatment 41.0), 12.8%; in assay [2] (Patient #3, oral for 10 days, before treatment 18.6), 18.0%. Further, the “reduction of synovial collagenolytic enzyme activity” value in assay [2] (patients #1 and 2 (high level of activity)) is listed as 69-82%.
